Results taken from patent US4900730A, “Preparation which promotes the absorption of peptides” (priority 1981, dated 1990).

Assay: Rectal circulation: Cephalothin disappeared by absorption (Examples 10-14, 16-18)
Protocol: The experiments were conducted similarly as in Example 1. […] Each sample was diluted and the quantity of Cephalothin disappeared was determined by UV-spectrophotometer of high-speed liquid chromatography.

[1] = Table 11, promoter 0.5% W/V, Example 10 repeated, four-fold tonic
[2] = Table 11, promoter 0.5% W/V, Example 10 repeated, isotonic
[3] = Table 4, promoter 0.1% W/V, 0.1% W/V Cephalothin.Na, isotonic, after one hour
[4] = Table 4, promoter 0.1% W/V, 0.1% W/V Cephalothin.Na, four-fold tonic, after one hour
[5] = Table 4, promoter 0.1% W/V, 0.1% W/V Cephalothin.Na, two-fold tonic, after one hour
[6] = Table 5, promoter 0.1% W/V, 0.1% W/V Cephalothin.Na, four-fold tonic, one hour

NC(CS(=O)(=O)O)C(=O)O (racemic) [DL-cysteic acid]
Cephalothin disappeared by absorption, Osmotic pressure X 1 (rat, in vivo): 5.3 percents | Cephalothin disappeared by absorption, Osmotic pressure X 2 (rat, in vivo): 9.0 percents | Cephalothin disappeared by absorption, Osmotic pressure X 4 (rat, in vivo): 14.6 percents

O=C(O)[C@@H]1C[C@@H](O)CN1 (racemic) [DL-hydroxyproline]
Cephalothin disappeared by absorption, Osmotic pressure X 4 [1]: 12.9 percents | Cephalothin disappeared by absorption, Osmotic pressure X 1 [2]: 5.5 percents

NC(Cc1ccccc1)C(=O)O (racemic) [DL-phenylalanine]
Cephalothin disappeared by absorption, Osmotic pressure X 1 (rat, in vivo): 6.6 percents | Cephalothin disappeared by absorption, Osmotic pressure X 4 (rat, in vivo): 15.6 percents

NC(C(=O)O)c1ccccc1 (racemic) [DL-phenylglycine]
Cephalothin disappeared by absorption, Osmotic pressure X 4 (rat, in vivo): 29.3 percents

CCC(NC(=O)CN)C(=O)O (racemic) [Glycyl-DL-aminobutyric acid, glycyl-DL-aminobutyric acid]
Cephalothin disappeared by absorption, Osmotic pressure X 1 (rat, in vivo): 11.0 percents | Cephalothin disappeared by absorption, Osmotic pressure X 4 (rat, in vivo): 30.4 percents

NCC(=O)NC(CC(=O)O)C(=O)O (racemic) [Glycyl-DL-aspartic acid, glycyl-DL-aspartic acid]
Cephalothin disappeared by absorption, Osmotic pressure X 1 (rat, in vivo): 8.6 percents | Cephalothin disappeared by absorption, Osmotic pressure X 4 (rat, in vivo): 19.0 percents

COC(=O)C(N)CCC(=O)O (racemic) [α-methyl DL-glutamate]
Cephalothin disappeared by absorption, Osmotic pressure X 4 (Table 11, promoter 0.1% W/V, Example 10 repeated, four-fold tonic): 21.4 percents | Cephalothin disappeared by absorption, Osmotic pressure X 1 (Table 11, promoter 0.1% W/V, Example 10 repeated, isotonic): 11.9 percents

O=C(O)c1c(O)cccc1O [2,6-dihydroxybenzoic acid]
Cephalothin.Na disappeared by absorption, Osmotic pressure X 1 (rat, in vivo): 9.5 percents | Cephalothin.Na disappeared by absorption, Osmotic pressure X 2 (rat, in vivo): 15.3 percents | Cephalothin.Na disappeared by absorption, Osmotic pressure X 4 (rat, in vivo): 22.9 percents

CC(=O)CC(=O)Cc1ccccc1 [3-Phenylacetyl acetone, 3-phenylacetyl acetone]
Cephalothin disappeared by absorption, Osmotic pressure X 4 (Table 10, diketo-compounds, Example 10 repeated, four-fold tonic): 22.2 percents | Cephalothin disappeared by absorption, Osmotic pressure X 1 (Table 10, diketo-compounds, Example 10 repeated, isotonic): 9.1 percents | Cephalothin disappeared by absorption, Osmotic pressure X 2 (Table 10, diketo-compounds, Example 10 repeated, two-fold tonic): 16.3 percents

O=C(O)CN(CC(=O)O)C1CCCCC1N(CC(=O)O)CC(=O)O (stereo not drawn) [CyDTA, trans-cyclohexanediaminetetraacetic acid]
Cephalothin disappeared by absorption, Osmotic pressure (%) X 1 (rat, in vivo): 8.1% | Cephalothin disappeared by absorption, Osmotic pressure (%) X 2 (rat, in vivo): 15.0% | Cephalothin disappeared by absorption, Osmotic pressure (%) X 4 (rat, in vivo): 32.3%

O=S(=O)(O)c1cc(O)c(O)c(S(=O)(=O)O)c1 [DHBDS, 1,2-dihydroxybenzene-3,5-disulfonic acid]
Cephalothin disappeared by absorption, Osmotic pressure X 1 (rat, in vivo): 9.8 percents | Cephalothin disappeared by absorption, Osmotic pressure X 4 (rat, in vivo): 22.0 percents

NCC(=O)O [DL-glycine]
Cephalothin disappeared by absorption, Osmotic pressure X 4 [1]: 14.0 percents | Cephalothin disappeared by absorption, Osmotic pressure X 1 [2]: 6.9 percents | Cephalothin disappeared by absorption, Osmotic pressure X 2 (Table 11, promoter 0.5% W/V, Example 10 repeated, two-fold tonic): 9.4 percents

O=C(O)CN(CC(=O)O)CC(O)CN(CC(=O)O)CC(=O)O [DTPA-OH, diaminopropanoltetraacetic acid]
Cephalothin disappeared by absorption, Osmotic pressure (%) X 1 (rat, in vivo): 7.5% | Cephalothin disappeared by absorption, Osmotic pressure (%) X 2 (rat, in vivo): 13.7% | Cephalothin disappeared by absorption, Osmotic pressure (%) X 4 (rat, in vivo): 21.6%

O=C(O)CN(CCN(CC(=O)O)CC(=O)O)CC(=O)O [EDTA.2Na, ethylenediaminetetraacetic acid]
Cephalothin disappeared by absorption, Osmotic pressure (%) X 1 [3]: 9.4%

O=P(O)(O)CN(CCN(CP(=O)(O)O)CP(=O)(O)O)CP(=O)(O)O [EDTPO, ethylenediaminetetrakis(methylenephosphonicacid)]
Cephalothin disappeared by absorption, Osmotic pressure X 1 (rat, in vivo): 7.6 percents | Cephalothin disappeared by absorption, Osmotic pressure X 4 (rat, in vivo): 20.0 percents

CCC(C(=O)O)C(=O)O [Ethylmalonic acid, ethylmalonic acid]
Cephalothin disappeared by absorption, Osmotic pressure (%) X 1 (rat, in vivo): 12.3% | Cephalothin disappeared by absorption, Osmotic pressure (%) X 2 (rat, in vivo): 24.2% | Cephalothin disappeared by absorption, Osmotic pressure (%) X 4 (rat, in vivo): 36.9%

O=P(O)(O)OC[C@H]1O[C@](O)(COP(=O)(O)O)[C@@H](O)[C@@H]1O [Fructose-1,6-diphosphoric acid]
Cephalothin disappeared by absorption, Osmotic pressure X 1 (rat, in vivo): 4.1 percents | Cephalothin disappeared by absorption, Osmotic pressure X 2 (rat, in vivo): 7.5 percents | Cephalothin disappeared by absorption, Osmotic pressure X 4 (rat, in vivo): 13.3 percents

O=C[C@H](O)[C@@H](O)[C@@H](O)[C@H](O)C(=O)O [Galactronic acid, galacturonic acid]
Cephalothin disappeared by absorption, Osmotic pressure X 1 (rat, in vivo): 5.8 percents | Cephalothin disappeared by absorption, Osmotic pressure X 2 (rat, in vivo): 10.5 percents | Cephalothin disappeared by absorption, Osmotic pressure X 4 (rat, in vivo): 16.1 percents

O=C[C@H](O)[C@@H](O)[C@H](O)[C@H](O)C(=O)O [Glucronic acid, glucuronic acid]
Cephalothin disappeared by absorption, Osmotic pressure X 1 (rat, in vivo): 5.5 percents | Cephalothin disappeared by absorption, Osmotic pressure X 2 (rat, in vivo): 11.1 percents | Cephalothin disappeared by absorption, Osmotic pressure X 4 (rat, in vivo): 16.4 percents

O=C(O)CCCC(=O)O [Glutaric acid, glutaric acid]
Cephalothin disappeared by absorption, Osmotic pressure (%) X 4 [4]: 15.2% | Cephalothin disappeared by absorption, Osmotic pressure (%) X 1 [3]: 5.7% | Cephalothin disappeared by absorption, Osmotic pressure (%) X 2 [5]: 9.3%

O=C(O)CNCC(=O)O [Iminodiacetic acid, iminodiacetic acid]
Cephalothin disappeared by absorption, Osmotic pressure (%) X 1 (rat, in vivo): 7.1% | Cephalothin disappeared by absorption, Osmotic pressure (%) X 2 (rat, in vivo): 14.2% | Cephalothin disappeared by absorption, Osmotic pressure (%) X 4 (rat, in vivo): 17.0%

CC(=O)CCC(=O)O [Levulinic acid, levulinic acid]
Cephalothin disappeared by absorption, Osmotic pressure (%) X 1 (rat, in vivo): 11.9% | Cephalothin disappeared by absorption, Osmotic pressure (%) X 2 (rat, in vivo): 21.1% | Cephalothin disappeared by absorption, Osmotic pressure (%) X 4 (rat, in vivo): 34.3%

O=C(O)CC(O)C(=O)O (stereo not shown) [Malic acid, malic acid]
Cephalothin disappeared by absorption, Osmotic pressure X 4 (Table 6, promoter 0.1 W/V %, 0.1 W/V % Cephalothin.Na, four-fold tonic, one hour): 18.8 percents | Cephalothin disappeared by absorption, Osmotic pressure X 1 (Table 6, promoter 0.1 W/V %, 0.1 W/V % Cephalothin.Na, isotonic, one hour): 7.2 percents | Cephalothin disappeared by absorption, Osmotic pressure X 2 (Table 6, promoter 0.1 W/V %, 0.1 W/V % Cephalothin.Na, two-fold tonic, one hour): 12.3 percents

CN(C)[C@@H](Cc1ccccc1)C(=O)O [N--dimethylphenylalanine, N-dimethylphenylalanine]
Cephalothin disappeared by absorption, Osmotic pressure X 1 (rat, in vivo): 10.9 percents | Cephalothin disappeared by absorption, Osmotic pressure X 4 (rat, in vivo): 25.5 percents

O=C(O)CNc1ccccc1 [N--phenylglycine, N-phenylglycine]
Cephalothin disappeared by absorption, Osmotic pressure X 1 (rat, in vivo): 12.0 percents | Cephalothin disappeared by absorption, Osmotic pressure X 2 (rat, in vivo): 22.3 percents | Cephalothin disappeared by absorption, Osmotic pressure X 4 (rat, in vivo): 30.8 percents

O=C(O)CCCCCC(=O)O [Pimellic acid, pimellic acid]
Cephalothin disappeared by absorption, Osmotic pressure (%) X 1 (rat, in vivo): 5.1% | Cephalothin disappeared by absorption, Osmotic pressure (%) X 2 (rat, in vivo): 7.8% | Cephalothin disappeared by absorption, Osmotic pressure (%) X 4 (rat, in vivo): 15.0%

O=CC(=O)[O-].[Na+] [Sodium glyoxalate, sodium glyoxalate]
Cephalothin disappeared by absorption, Osmotic pressure (%) X 4 [6]: 13.1% | Cephalothin disappeared by absorption, Osmotic pressure (%) X 1 (Table 5, promoter 0.1% W/V, 0.1% W/V Cephalothin.Na, isotonic, one hour): 4.9%

O=C([O-])C(=O)C(=O)[O-].[Na+].[Na+] [Sodium ketomalonate, sodium ketomalonate]
Cephalothin disappeared by absorption, Osmotic pressure (%) X 1 (rat, in vivo): 8.4% | Cephalothin disappeared by absorption, Osmotic pressure (%) X 2 (rat, in vivo): 12.7% | Cephalothin disappeared by absorption, Osmotic pressure (%) X 4 (rat, in vivo): 19.6%

O=C([O-])C(=O)[O-].[Na+].[Na+] [Sodium oxalate, sodium oxalate]
Cephalothin disappeared by absorption, Osmotic pressure (%) X 4 [4]: 18.3% | Cephalothin disappeared by absorption, Osmotic pressure (%) X 1 [3]: 6.6%

O=C([O-])c1ccccc1C(=O)[O-].[Na+].[Na+] [Sodium phthalate, sodium phthalate]
Cephalothin.Na disappeared by absorption, Osmotic pressure X 1 (rat, in vivo): 7.1 percents | Cephalothin.Na disappeared by absorption, Osmotic pressure X 4 (rat, in vivo): 18.9 percents

CC(=O)C(=O)[O-].[Na+] [Sodium pyruvate, sodium pyruvate]
Cephalothin disappeared by absorption, Osmotic pressure (%) X 1 (rat, in vivo): 7.0% | Cephalothin disappeared by absorption, Osmotic pressure (%) X 2 (rat, in vivo): 11.6% | Cephalothin disappeared by absorption, Osmotic pressure (%) X 4 (rat, in vivo): 23.1%

O=C(O)CCC(=O)O [Succinic acid]
Cephalothin disappeared by absorption, Osmotic pressure (%) X 1 (rat, in vivo): 8.2% | Cephalothin disappeared by absorption, Osmotic pressure (%) X 2 (rat, in vivo): 13.1% | Cephalothin disappeared by absorption, Osmotic pressure (%) X 4 (rat, in vivo): 24.0%

O=C(O)/C=C(\CC(=O)O)C(=O)O [Trans-aconitic acid, trans-aconitic acid]
Cephalothin disappeared by absorption, Osmotic pressure (%) X 4 [4]: 27.8% | Cephalothin disappeared by absorption, Osmotic pressure (%) X 1 [3]: 10.5% | Cephalothin disappeared by absorption, Osmotic pressure (%) X 2 [5]: 18.6%

CCC(=O)C(=O)O [α-ketobutyric acid]
Cephalothin disappeared by absorption, Osmotic pressure (%) X 1 (rat, in vivo): 11.2% | Cephalothin disappeared by absorption, Osmotic pressure (%) X 2 (rat, in vivo): 18.3% | Cephalothin disappeared by absorption, Osmotic pressure (%) X 4 (rat, in vivo): 30.9%

O=C(O)CCC(=O)C(=O)O [α-ketoglutaric acid]
Cephalothin disappeared by absorption, Osmotic pressure (%) X 4 [6]: 25.6%
